According to ChEMBL document CHEMBL1140860, “Synthesis and evaluation of dihydroartemisinin and dihydroartemisitene acetal dimers showing anticancer and antiprotozoal activity” (Bioorg Med Chem, 2009):

Columns and labels:
[1] = Selectivity index, ratio of TC50 for african green monkey (Cercopithecus aethiops) Vero cells to IC50 for chloroquine-resistant Plasmodium falciparum W2; format: toxicity, cell-based
[2] = Selectivity index, ratio of TC50 for african green monkey (Cercopithecus aethiops) Vero cells to IC50 for chloroquine-sensitive Plasmodium falciparum D6; format: toxicity, cell-based
Plasmodium falciparum [3] = experiment: Antimalarial activity after 72 hrs against chloroquine-resistant Plasmodium falciparum W2 infected erythrocytes by LDH assay; format: functional, organism-based; details: W2, 72 h
[4] = Cytotoxicity against african green monkey Vero cells after 48 hrs by neutral red assay; format: cell-based; details: chlorocebus sabaeus, read-out: TC50
Plasmodium falciparum [5] = experiment: Antimalarial activity after 72 hrs against chloroquine-sensitive Plasmodium falciparum D6 infected in erythrocytes by LDH assay; format: functional, organism-based; details: D6, 72 h
Leishmania donovani = experiment: Antileishmanial activity against Leishmania donovani promastigotes after 48 hrs by alamar-blue assay; format: functional, organism-based

Compound	selectivity ratio [1]	selectivity ratio [2]	IC50 (Plasmodium falciparum [3]) [µM]	CC50 at 48 h [4] [µM]	IC50 (Plasmodium falciparum [5]) [µM]	IC50 (Leishmania donovani) [µM]	IC90 (Leishmania donovani) [µM]
C[C@H]1[C@H](O[C@H]2O[C@@H]3O[C@@]4(C)CC[C@H]5[C@H](C)CC[C@@H]([C@H]2C)[C@@]35OO4)O[C@@H]2O[C@@]3(C)CC[C@H]4[C@H](C)CC[C@@H]1[C@@]24OO3	> 34	> 37	25.4	> 864	23.6		
C[C@H]1[C@@H](O[C@H]2O[C@@H]3O[C@@]4(C)CC[C@H]5[C@H](C)CC[C@@H]([C@H]2C)[C@@]35OO4)O[C@@H]2O[C@@]3(C)CC[C@H]4[C@H](C)CC[C@@H]1[C@@]24OO3	> 125	> 73	6.9	> 864	11.8		
C[C@@H]1[C@H](O)[C@@H](C)/C=C/C=C/C=C/C=C/C=C/C=C/C=C/[C@H](O[C@@H]2O[C@H](C)[C@@H](O)[C@H](N)[C@@H]2O)C[C@@H]2O[C@](O)(C[C@@H](O)C[C@@H](O)[C@H](O)CC[C@@H](O)C[C@@H](O)CC(=O)O[C@H]1C)C[C@H](O)[C@H]2C(=O)O [AMPHOTERICIN B]						0.1	0.2
C[C@@H]1CC[C@H]2[C@@H](C)C(=O)O[C@@H]3O[C@@]4(C)CC[C@@H]1[C@]32OO4 [ARTEMISININ]	> 106	> 170		> 1690			
N=C(N)c1ccc(OCCCCCOc2ccc(C(=N)N)cc2)cc1 [PENTAMIDINE]						3.5	14.7
